Values quoted from earlier work, collected in patent US20070294068A1, “LINE-WALKING RECURSIVE PARTITIONING METHOD FOR EVALUATING MOLECULAR INTERACTIONS AND QUESTIONS RELATING TO TEST OBJECTS” (priority 2006, published 2007).

Tested on: 2C9
Settings: literature reports

SMILES	reported inhibition of 2C9
Nc1ccc(S(=O)(=O)Nc2ncccn2)cc1 [sulfadiazine]	only a weak inhibitor
CCc1ccc(CCOc2ccc(CC3SC(=O)NC3=O)cc2)nc1 (centres unmarked) [pioglitazone]	weak inhibitor of the *2 allylic variant not the native enzyme
